Values after ≈ are worked out from the molar mass of the structure shown.
These compounds were tested on SA 9218 (assay: MIC by standard agar dilution method). Settings: Mueller Hinton agar, 10^4 to 10^5 cells per spot, incubated overnight at 35° C., lowest concentration that inhibits visible growth.
Assay type: cell-based
Text: The antibacterial agents of this invention have useful activity against a variety of organisms. The in vitro activity of compounds of this invention can be assessed by standard testing procedures such as the determination of minimum inhibitory concentration (MIC) by agar dilution as described in “Approved Standard. Methods for Dilution Antimicrobial Susceptibility Tests for Bacteria That Grow Aerobically”, 3rd. ed., published 1993 by the National Committee for Clinical Laboratory Standards, Villanova, Pa., USA. The in vitro MICs of test compounds were determined by a standard agar dilution method. A stock drug solution of each analog was prepared in the preferred solvent, usually DMSO:H2O (1:3). Serial 2-fold dilutions of each sample are made using 1.0 ml aliquots of sterile distilled water. To each 1.0 ml aliquot of drug was added 9 ml of molten Mueller Hinton agar medium. The drug-supplemented agar was mixed, poured into 15×100 mm petri dishes, and allowed to solidify and dry prior to inoculation. Vials of each of the test organisms are maintained frozen in the vapor phase of a liquid nitrogen freezer. Test cultures are grown overnight at 35° C. on the medium appropriate for the organism. Colonies are harvested with a sterile swab, and cell suspensions are prepared in Trypticase Soy broth (TSB) to equal the turbidity of a 0.5 McFarland standard. A 1:20 dilution of each suspension was made in TSB. The plates containing the drug supplemented agar are inoculated with a 0.001 ml drop of the cell suspension using a Steers replicator, yielding approximately 10^4 to 10^5 cells per spot. The plates are incubated overnight at 35° C. Following incubation the Minimum Inhibitory Concentration (MIC μg/ml), the lowest concentration of drug that inhibits visible growth of the organism, was read and recorded.

First: O=C(Nc1ccc(Br)cc1C(=O)O)c1ccc(Br)c(S(=O)(=O)N2CCN(c3cccc(C(F)(F)F)c3)CC2)c1
Second: N#Cc1ccc(NC(=O)c2cccc(S(=O)(=O)N3CCN(c4ccc(F)cc4)CC3)c2)c(C(=O)O)c1 [PHA-571230]
The MIC of the first is 2-fold lower: 8 µg/mL (≈ 11.6 µM) for the first, 16 µg/mL (≈ 31.5 µM) for the second.

Going from `CC(C)(C)c1ccc(-c2ccc(NC(=O)c3cccc(S(=O)(=O)N4CCc5cc(Cl)ccc54)c3)c(C(=O)O)c2)cc1` [PHA-563283] to `O=C(Nc1ccc(-c2cnccn2)cc1C(=O)O)c1cccc(S(=O)(=O)N2CCc3cc(Cl)ccc32)c1` [PHA-556661], the MIC falls from 16 µg/mL (≈ 27.2 µM) to 8 µg/mL (≈ 15 µM) (2-fold).

Compared with `CSc1ccc(C(=O)Nc2ccc(C#N)cc2C(=O)O)cc1`, `CCOc1ccc(C(=O)Nc2ccc(C#N)cc2C(=O)O)cc1` is 64-fold higher in MIC: 0.5 µg/mL (≈ 1.6 µM) for the first, 32 µg/mL (≈ 103 µM) for the second.

First: COc1cc(C(=O)Nc2ccc(C#N)cc2C(=O)O)c([N+](=O)[O-])cc1OC
Second: COc1cc(C(=O)Nc2ccc(Br)cc2C(=O)O)cc(OC)c1OC
The MIC of the first is higher: greater than 128 µg/mL for the first, 32 µg/mL (≈ 78 µM) for the second.

Going from `N#Cc1ccc(NC(=S)c2cccc(S(=O)(=O)N3CCOCC3)c2)c(C(=O)O)c1` [PHA-662430] to `N#Cc1ccc(NC(=O)c2ccc(S(=O)(=O)N3CCC(C#N)(c4ccccc4)CC3)cc2)c(C(=O)O)c1` [PHA-571188], the MIC rises from 1 µg/mL (≈ 2.32 µM) to 8 µg/mL (≈ 15.5 µM) (8-fold).

First: CN(C)c1ccc(C(=O)Nc2ccc(Br)cc2C(=O)O)cc1
Second: COc1cc(C(=O)Nc2ccc(Br)cc2C(=O)O)ccc1C
The MIC of the first is lower: 32 µg/mL (≈ 88.1 µM) for the first, greater than 128 µg/mL for the second.

`CC(C)CN(CC(C)C)S(=O)(=O)c1cccc(C(=O)Nc2ccc(C#N)cc2C(=O)O)c1` [PHA-571164] and `CN(CCc1ccccc1)S(=O)(=O)c1cccc(C(=O)Nc2ccc(C#N)cc2C(=O)O)c1` [PHA-571215] are the same in MIC: 8 µg/mL (≈ 17.5 µM) for the first, 8 µg/mL (≈ 17.3 µM) for the second.

Compared with `O=C(Nc1ccc(Br)cc1C(=O)O)c1cccc(OC2CCOC2=O)c1` (stereo not drawn) [PHA-571285], `COc1cccc(C(=O)Nc2ccc(Br)cc2C(=O)O)c1` [PHA-504639] is 16-fold lower in MIC: 64 µg/mL (≈ 152 µM) for the first, 4 µg/mL (≈ 11.4 µM) for the second.

`CC(C)(C)CC(=O)c1cccc(C(=O)Nc2ccc(Cl)cc2C(=O)O)c1` [PHA-656889] and `CC(C)C(=O)c1cccc(C(=O)Nc2ccc(Cl)cc2C(=O)O)c1` [PHA-656884] are the same in MIC: 16 µg/mL (≈ 42.8 µM) for the first, 16 µg/mL (≈ 46.3 µM) for the second.

Going from `O=C(O)c1cc([N+](=O)[O-])ccc1/C=C/c1cccc(S(=O)(=O)N2CCc3cc(Cl)ccc32)c1` [PHA-568196] to `O=C(Nc1ccc(Br)cc1C(=O)O)c1cccc(S(=O)(=O)N2CCc3cc(Cl)ccc32)c1` [PNU-288969], the MIC falls from 1 µg/mL (≈ 2.06 µM) to 0.25 µg/mL (≈ 0.467 µM) (4-fold).

`CSc1cccc(NC(=O)Nc2cccc(C(=O)Nc3ccc(Br)cc3C(=O)O)c2)c1` [PHA-708992] and `O=C(Nc1cccc(Cl)c1)Nc1cccc(C(=O)Nc2ccc(Br)cc2C(=O)O)c1` [PHA-708991] are the same in MIC: 4 µg/mL (≈ 7.99 µM) for the first, 4 µg/mL (≈ 8.18 µM) for the second.

Compared with `O=C(Nc1ccc(Br)cc1C(=O)O)c1cccc([N+](=O)[O-])c1`, `O=C(Nc1ccc(Br)cc1C(=O)O)c1cccc(C(F)(F)F)c1` is 16-fold lower in MIC: 128 µg/mL (≈ 351 µM) for the first, 8 µg/mL (≈ 20.6 µM) for the second.

Compared with `O=C(Nc1ccc(Br)cc1C(=O)O)c1ccc(C(=O)N2CCc3ccccc32)cc1` [PNU-292577], `O=C(Nc1ccc(Br)cc1C(=O)O)c1ccc(OCCNc2ccccc2)cc1` is 2-fold lower in MIC: 128 µg/mL (≈ 275 µM) for the first, 64 µg/mL (≈ 141 µM) for the second.

Going from `COc1ccc(S(=O)(=O)N(C)c2ccc(Cl)cc2)cc1C(=O)Nc1ccc(Br)cc1C(=O)O` [PNU-289815] to `O=C(Nc1ccc(Br)cc1C(=O)O)c1cccc(S(=O)(=O)Nc2ccc3c(c2)OCCO3)c1`, the MIC falls from 8 µg/mL (≈ 14.4 µM) to 4 µg/mL (≈ 7.5 µM) (2-fold).

`CCCNC(c1cccc(C(=O)Nc2ccc(Cl)cc2C(=O)O)c1)c1ccco1` (stereo not drawn) and `O=C(Nc1ccc(Cl)cc1C(=O)O)c1cccc(C(NC2CCc3ccccc32)c2ccccc2)c1` (stereo not drawn) are the same in MIC: 16 µg/mL (≈ 38.8 µM) for the first, 16 µg/mL (≈ 32.2 µM) for the second.

Compared with `O=C(Nc1ccc(Br)cc1C(=O)O)c1cccc(OCn2nnc3ccccc32)c1`, `COC(=O)c1ccc(COc2cccc(C(=O)Nc3ccc(Br)cc3C(=O)O)c2)cc1` [PHA-571283] is 2-fold lower in MIC: 32 µg/mL (≈ 68.5 µM) for the first, 16 µg/mL (≈ 33 µM) for the second.

First: CCOC(=O)Oc1c(OC)cc(C(=O)Nc2ccc(Br)cc2C(=O)O)cc1OC
Second: N#Cc1cccc(NC(=O)Nc2cccc(C(=O)Nc3ccc(Br)cc3C(=O)O)c2)c1 [PHA-708990]
The MIC of the first is 16-fold higher: 128 µg/mL (≈ 273 µM) for the first, 8 µg/mL (≈ 16.7 µM) for the second.

Compared with `N#Cc1ccc(NC(=O)c2ccc(S(=O)(=O)Nc3ccc4c(c3)CCC4)cc2)c(C(=O)O)c1` [PHA-571207], `Cc1ccccc1Oc1cccc(C(=O)Nc2ccc(C#N)cc2C(=O)O)c1` [PHA-562733] is 130-fold lower in MIC: 32 µg/mL (≈ 69.3 µM) for the first, 0.25 µg/mL (≈ 0.671 µM) for the second.

First: CCCCCCCCCCC(=O)NCc1ccc(C(=O)Nc2ccc(C#N)cc2C(=O)O)cc1S(=O)(=O)N1CCc2ccccc21 [PHA-738532]
Second: O=C(Nc1ccc(-c2cc(C(F)(F)F)cc(C(F)(F)F)c2)cc1C(=O)O)c1cccc(S(=O)(=O)N2CCc3cc(Cl)ccc32)c1 [PHA-563280]
The MIC of the first is 32-fold higher: 32 µg/mL (≈ 49.6 µM) for the first, 1 µg/mL (≈ 1.49 µM) for the second.

With `O=C(Nc1ccc(Cl)cc1C(=O)O)c1ccc(C(=O)C2CCCC2)cc1` [drawing 1027] the “SA 9218 MIC” value was 8 µg/mL.

Reference: patent publication US20050113450A1, “Antibacterial agents” (priority 2002, published 2005)
